Measurements taken from patent US20220380357A1, “TETRAHYDROISOQUINOLINE COMPOUNDS” (ALLINKY BIOPHARMA, priority 2019, published 2022).
Where two headings read alike, the source gives them in different places.

Experiments:
Type in all cases: cell-based
[1] = system: H358. non-small cell lung cancer line bearing KRas^G12C oncogenic mutation; experiment: Antiproliferative MTS assay, H358 cells; conditions: compounds 1-23, 47-52 and Reference Example 1 median of experiments, 24-46 estimations and/or preliminary results, read-out: IC50 values: cell proliferation inhibition, H358
Method: Cell line #2: H358. non-small cell lung cancer line bearing KRas^G12C oncogenic mutation
(§1) Cell lines were cultured in DMEM or RPMI-1640 supplemented with FBS 10%. In order to assess the antiproliferative effect of compounds, cells were seeded at a density of 1.8×10^3, 6.2×10^3, 7.8×10^3, 21×10^3 and 2×10^3 cells/cm^2, respectively, in tissue culture microplates and were incubated in humidified atmosphere at 5% CO2. 24 h later, compounds dissolved in DMSO 100% were added for different final concentrations ranging between 0.1 and 50 μM for a final DMSO concentration of 0.5% and the plates were incubated for another 72 h. After incubation, proliferation was quantified using CellTiter 96® Aqueous Non-Radioactive Cell Proliferation Assay-MTS (Promega #G5421) following manufacturer instructions. Amount of 490 nm absorbance is directly proportional to the number of living cells. Absorbance was recorded with a BMG Fluostar Optima Microplate Reader and normalized to control with vehicle.

[2] = system: PANC-1. epithelioid carcinoma of the pancreas cell line bearing KRas^G12D oncogenic mutation; experiment: Antiproliferative MTS assay, PANC-1 cells; conditions: compounds 1-23 and 47-52 median of experiments, 24-46 estimations and/or preliminary results, read-out: IC50 values: cell proliferation inhibition, Panc-1
Method: Cell line #3: PANC-1. epithelioid carcinoma of the pancreas cell line bearing KRas^G12D oncogenic mutation
as §1

[3] = system: RPMI. myeloma cell line bearing KRas^G12A oncogenic mutation; experiment: Antiproliferative MTS assay, RPMI cells; conditions: 72 h, compounds 1-23 and 47-52 median of experiments, 24-46 estimations and/or preliminary results, read-out: IC50 values: cell proliferation inhibition, RPMI
Method: Cell line #4: RPMI. myeloma cell line bearing KRas^G12A oncogenic mutation
as §1

[4] = system: A549. Lung carcinoma cell line bearing KRas^G12S oncogenic mutation; experiment: Antiproliferative MTS assay, A549 cells; conditions: compounds 1-23 and 47-52 median of experiments, 24-46 estimations and/or preliminary results, read-out: IC50 values: cell proliferation inhibition, A549
Method: Cell line #1: A549. Lung carcinoma cell line bearing KRas^G12S oncogenic mutation
as §1

Row | IC50 ([1]; Homo sapiens, NCI-H358, 72 h) [nM] | IC50 ([2]; Homo sapiens, PANC-1, 72 h) [nM] | IC50 [3] [nM] | IC50 ([4]; Homo sapiens, A549, 72 h) [nM] | IC50 ([1]; 72 h) [nM] | IC50 ([2]; 72 h) [nM] | IC50 ([4]; 72 h) [nM] | Structure (SMILES)
1 | 200 | 100 | 100 | 900 |  |  |  | CCNC(=O)N1CCc2cc(OC)c(OCCc3ccc(OC)c(N)c3)cc2C1c1ccc(F)cc1C (stereo not shown) [Compound 12]
2 | 600 | 600 | 300 | > 2000 |  |  |  | COc1cc(CCOc2cc3c(cc2OC)CCN(C(=O)NCc2ccon2)C3c2ccc(C(F)(F)F)cc2C)ccc1N (stereo not shown) [Compound 39]
3 | 500 | 400 | 200 | 1500 |  |  |  | COc1cc(CCOc2cc3c(cc2OC)CCN(C(=O)NCc2ccon2)C3c2ccc(C)cc2C)ccc1N (stereo not shown) [Compound 38]
4 | 300 | 300 | 100 | 900 |  |  |  | COc1ccc(CCOc2cc3c(cc2OC)CCN(C(=O)NCC(F)(F)F)C3c2ccc(F)cc2C)cc1N (stereo not shown) [Compound 27]
5 | 500 | 400 | 100 | 1200 |  |  |  | COc1cc(CCOc2cc3c(cc2OC)CCN(C(=O)NCc2cocn2)C3c2ccc(C(F)(F)F)cc2C)ccc1N (stereo not shown) [Compound 34]
6 | 800 | 500 | 300 | > 2000 |  |  |  | COc1cc(CCOc2cc3c(cc2OC)CCN(C(=O)NCC(F)(F)F)C3c2ccc(C(F)(F)F)cc2C)ccc1N (stereo not shown) [Compound 44]
7 | 400 | 500 | 200 | 1000 |  |  |  | COc1ccc(C2c3cc(OCCc4ccc(OC)c(N)c4)c(OC)cc3CCN2C(=O)NCC(F)(F)F)c(C)c1 (stereo not shown) [Compound 26]
8 | 200 | 200 | 100 | 1000 |  |  |  | COc1ccc(CCOc2cc3c(cc2OC)CCN(C(=O)NCC(F)(F)F)C3c2ccc(C)cc2C)cc1N (stereo not shown) [Compound 24]
9 | 400 | 400 | 200 | 1000 |  |  |  | COc1ccc(CCOc2cc3c(cc2OC)CCN(C(=O)NCc2ccon2)C3c2ccc(C(F)(F)F)cc2C)cc1N (stereo not shown) [Compound 20]
10 | 300 |  |  |  |  |  |  | CCNC(=O)N1CCc2cc(OC)c(OCCc3ccc(OC)c(N)c3)cc2C1c1ccc(C(=O)OC)cc1C (stereo not shown) [Reference Example 1, reference compound]
11 | 700 | 600 | 500 | > 2000 |  |  |  | COc1ccc(CCOc2cc3c(cc2OC)CCN(C(=O)NCc2ccon2)C3c2ccc(F)cc2C)cc1N (stereo not shown) [Compound 22]
12 | 500 | 400 | 200 | 1500 |  |  |  | CCNC(=O)N1CCc2cc(OC)c(OCCc3ccc(N)c(OC)c3)cc2C1c1ccc(C(F)(F)F)cc1C (stereo not shown) [Compound 29]
13 | 300 | 200 | 100 | 1000 |  |  |  | COc1ccc(CCOc2cc3c(cc2OC)CCN(C(=O)NCc2cocn2)C3c2ccc(Cl)cc2C)cc1N (stereo not shown) [Compound 18]
14 | 300 | 300 | 100 | 1000 |  |  |  | COc1cc(CCOc2cc3c(cc2OC)CCN(C(=O)NCc2ccon2)C3c2ccc(Cl)cc2C)ccc1N (stereo not shown) [Compound 42]
15 | 300 | 300 | 100 | 1000 |  |  |  | COc1ccc(C2c3cc(OCCc4ccc(N)c(OC)c4)c(OC)cc3CCN2C(=O)NCc2ccon2)c(C)c1 (stereo not shown) [Compound 40]
16 | > 800 | 1500 | > 1000 | > 2000 |  |  |  | COc1cc2c(cc1OCCc1ccc(OC)c([N+](=O)[O-])c1)C(c1ccc(C)cc1C)N(C(=O)NCc1cocn1)CC2 (stereo not shown) [Compound 49]

Row | IC50 ([1]; Homo sapiens, NCI-H358, 72 h) [nM] | IC50 ([2]; Homo sapiens, PANC-1, 72 h) [nM] | IC50 [3] [nM] | IC50 ([4]; Homo sapiens, A549, 72 h) [nM] | IC50 ([1]; 72 h) [nM] | IC50 ([2]; 72 h) [nM] | IC50 ([4]; 72 h) [nM] | Structure (SMILES)
17 | 500 | 300 | 500 | 1500 |  |  |  | COc1ccc(CCOc2cc3c(cc2OC)CCN(C(=O)NCc2ccon2)C3c2ccc(C)cc2C)cc1N (stereo not shown) [Compound 19]
18 | 500 | 300 | 100 | 1000 |  |  |  | COc1cc(CCOc2cc3c(cc2OC)CCN(C(=O)NCC(F)(F)F)C3c2ccc(F)cc2C)ccc1N (stereo not shown) [Compound 46]
19 | 300 | 300 | 100 | 1000 |  |  |  | COc1ccc(CCOc2cc3c(cc2OC)CCN(C(=O)NCc2cocn2)C3c2ccc(C(F)(F)F)cc2C)cc1N (stereo not shown) [Compound 15]
20 | 300 | 200 | 100 | 800 |  |  |  | COc1ccc(CCOc2cc3c(cc2OC)CCN(C(=O)NCC(F)(F)F)C3c2ccc(Cl)cc2C)cc1N (stereo not shown) [Compound 28]
21 | 300 | 200 | 100 | 1000 |  |  |  | COc1ccc(C2c3cc(OCCc4ccc(OC)c(N)c4)c(OC)cc3CCN2C(=O)NCc2cocn2)c(C)c1 (stereo not shown) [Compound 16]
22 | 500 | 400 | 100 | > 2000 |  |  |  | CCNC(=O)N1CCc2cc(OC)c(OCCc3ccc(N)c(OC)c3)cc2C1c1ccc(F)cc1C (stereo not shown) [Compound 31]
23 | 900 | 700 | 900 | > 2000 |  |  |  | COc1cc(CCOc2cc3c(cc2OC)CCN(C(=O)NCc2ccon2)C3c2ccc(F)cc2C)ccc1N (stereo not shown) [Compound 41]
24 |  |  | 100 |  | 300 | 200 | 1000 | CCNC(=O)N1CCc2cc(OC)c(OCCc3ccc(N)c(OC)c3)cc2C1c1ccc(Cl)cc1C (stereo not shown) [Compound 32]
25 | 500 | 400 | 200 | 1000 |  |  |  | COc1ccc(CCOc2cc3c(cc2OC)CCN(C(=O)NCc2cocn2)C3c2ccc(F)cc2C)cc1N (stereo not shown) [Compound 17]
26 | 100 | 100 | 100 | 700 |  |  |  | COc1ccc(CCOc2cc3c(cc2OC)CCN(C(=O)NCc2ccon2)C3c2ccc(Cl)cc2C)cc1N (stereo not shown) [Compound 23]
27 | 400 | 400 | 100 | 1500 |  |  |  | COc1cc(CCOc2cc3c(cc2OC)CCN(C(=O)NCc2cocn2)C3c2ccc(Cl)cc2C)ccc1N (stereo not shown) [Compound 37]
28 | 300 | 200 | 100 | 1000 |  |  |  | COc1cc(CCOc2cc3c(cc2OC)CCN(C(=O)NCC(F)(F)F)C3c2ccc(C)cc2C)ccc1N (stereo not shown) [Compound 43]
29 |  |  | 400 | 1600 | 700 | 500 |  | CCNC(=O)N1CCc2cc(OC)c(OCCc3ccc(N)c(OC)c3)cc2C1c1ccc(Cl)cc1C (stereo not shown) [Compound 14]
30 | 400 | 500 | 300 | 1000 |  |  |  | CCNC(=O)N1CCc2cc(OC)c(OCCc3ccc(N)c(OC)c3)cc2C1c1ccc(OC)cc1C (stereo not shown) [Compound 30]
31 | 400 | 400 | 300 | 1000 |  |  |  | COc1ccc(C2c3cc(OCCc4ccc(N)c(OC)c4)c(OC)cc3CCN2C(=O)NCc2cocn2)c(C)c1 (stereo not shown) [Compound 35]
